# Laboratory results taken from PMC9645260, “Small-molecule inhibitors of P-Rex guanine-nucleotide exchange factors” (Small GTPases, 2022).
# Target: T1, Ect2 (DHPH) (Homo sapiens, UniProt Q9H8V3)
# T1 construct: The ITSN1 DHPH domains and Ect2 DHPH domains, produced in and purified from bacteria; host or cells: bacteria
# T1 sequence (Q9H8V3 452-794 limits assumed): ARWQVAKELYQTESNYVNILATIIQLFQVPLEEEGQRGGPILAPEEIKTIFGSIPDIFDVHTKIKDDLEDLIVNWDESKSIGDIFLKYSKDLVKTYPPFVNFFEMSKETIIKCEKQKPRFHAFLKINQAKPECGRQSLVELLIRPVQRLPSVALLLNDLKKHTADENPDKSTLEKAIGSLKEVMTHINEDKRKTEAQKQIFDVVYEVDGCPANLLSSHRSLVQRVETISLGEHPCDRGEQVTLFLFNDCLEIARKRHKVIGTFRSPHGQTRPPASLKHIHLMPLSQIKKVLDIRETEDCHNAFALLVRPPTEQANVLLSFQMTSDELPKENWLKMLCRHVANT
# Assay: Liposome-based GEF activity assay, Ect2
# Type: biochemical
# Details: 10 µM, 500 nM ECT2 DHPH
# Procedure: Full-length N-terminally EE-tagged P-Rex1, P-Rex2, the P-Rex1 DH and DHPH domains and the P-Rex2 DH domain were produced in Sf9 cells using baculoviral transduction and were purified using anti-EE beads, as previously described. Briefly, frozen pellets from 500 ml of Sf9 culture infected with P-Rex expressing high-titre baculovirus were resuspended in ice-cold lysis Sf9-cell lysis buffer 2 (1x PBS, 1% Triton X-100, 5 mM EGTA, 1 mM EDTA, 25 mM NaF, 20 mM β-glycerophosphate, 1 mM DTT, 100 µM PMSF, 10 μg/ml each of leupeptin, pepstatin A, aprotinin and antipain) for 5 min and then ultracentrifuged at 118,000 × g for 1 h at 4°C. Supernatants were incubated with pre-washed anti-EE beads for 90 min on ice with end-over-end rotation. […] Protein concentration and purity were determined by coomassie staining of SDS-PAGE gels. […]
# Liposome-based GEF activity assays were carried out essentially as described, except that GEFs were incubated with inhibitor compounds prior to the assay. […] Small GTPases were isolated using anti-EE antibody-coupled Sepharose beads or glutathione Sepharose beads, as appropriate, by incubation on ice for 90 min with end-over-end rotation, four washes in ice-cold wash buffer and resuspension of beads in Ultima Gold scintillation fluid (Perkin Elmer). ^35S-GTPγS incorporation was assessed by scintillation counting (Packard 1600TR, Liquid Scintillation Analyser).
compound,measurement,value
"COc1ccc(-c2[nH]nc3c2C(c2ccc(-c4ccc(Cl)cc4)o2)C(C#N)=C(N)O3)cc1 (stereo not shown) [PREX-in1, 6-amino-4-[5-(4-chlorophenyl)-2-furyl]-3-(4-methoxyphenyl)-2,4-dihydropyrano[2,3-c]pyrazole-5-carbonitrile]",effect on GEF activity of Ect2,none of the other GEFs were affected
